Measurements: publication PMC6423038, “Deferiprone: Pan-selective Histone Lysine Demethylase Inhibition Activity and Structure Activity Relationship Study” (Scientific Reports, 2019)

What was measured:
[1] = test system: HP1-mediated heterochromatin gene repression in CiA:Oct4 embryonic stem cells; assay: HP1-recruitment assay dose curve (CiA:Oct4, with CIP-rapamycin), flow cytometry; type: cell-based, mouse; details: 48 h with CIP-rapamycin recruitment of HP1; up to 10 µM
From the text: To elucidate the effect of DFP-based KDM inhibitors on chromatin dynamics, we profiled them in an intracellular assay which measures heterochromatin formation speed. The chromatin in vivo assay (CiA) leverages chemical induced proximity (CIP) to recruit heterochromatin protein 1 (HP1) to a modified Oct4 locus. This reporter system is composed of tandem arrays of Gal4 and zinc finger DNA binding domains in the promoter of one allele of Oct4, where the gene was replaced by a nuclear eGFP reporter. Protein fusions of Gal4-FKBP and FRB-HP1 allow for direct chemical recruitment of HP1 to the CiA:Oct4 reporter locus upon addition of the chemical inducer of proximity (CIP)-rapamycin. After CIP-rapamycin addition, HP1 is recruited to the reporter locus and brings histone methyltransferase enzymes to the chromatin reporter resulting in the repressive H3K9me3 mark being deposited (Fig. 10A). H3K9me3 deposition is the signature mark of heterochromatin and is coupled with gene silencing and loss of GFP expression (Fig. 10B)[33]. Others have shown that H3K4me3 marked nucleosomes impede H3K9 methyltransferase activity. Thus, we postulate that the active H3K4me3 mark must be removed by KDM enzymes as part of the transformation from euchromatin to heterochromatin. Inhibition of KDMs, specifically those targeting H3K4me3, would result in a decrease in H3K9me3 accumulation, which would be measured in our assay as an increase in GFP positive cells.
To determine the effect of DFP-based KDM inhibitors on HP1-mediated gene repression, we treated CiA:Oct4 embryonic stem (ES) cells with doses of representative compounds ranging from 10 µM–250 nM for 48 h with CIP-rapamycin recruitment of HP1 (Fig. 10C). […] The percentage of GFP(+) cells was determined by flow cytometry as indicated in representative histograms (Supplemental Fig. S8).
Day 0, CiA:Oct4 N118/163 cells were grown in ES media and seeded at a density of 10,000 cells per well in 100 μL media (100,000 cells mL^−1) on gelatin coated 96 well plates. Day 1, culture media was aspirated and replaced with 100 µL ES media containing +/− 6 nM rapamycin. 10 µM, 5 µM, 2.5 µM, 1 µM, 500 nM, and 250 nM concentrations of compound or DMSO were added using a TTP Labtech Mosquito HTS liquid handler. Days 2, fresh ES media +/− rapamycin and compound were added as in Day 1. Day 3, cells were washed with PBS and trypsinized using 0.25% trypsin-EDTA. Trypsin was quenched with serum. Cells were resuspended by pipetting in preparation for flow cytometry analysis.
Flow cytometry data was acquired using the Intellicyt iQue Screener and analyzed with FlowJo software.
The CiA:Oct4 recruitment system in mouse embryonic stem cells contains Gal4 and Zinc finger DNA binding arrays and a downstream nuclear eGFP gene in place of a single Oct4 allele as previously described.^30 The CiA:Oct4 N118/N163 cell line containing viral integrations of N118 and N163 plasmids (N118- nLV EF-1α-Gal-FKBPx1-HA-PGK-Blast, N163- nLV EF-1α-HP1α (CS)-Frbx2(Frb+FrbWobb)-V5-PGK-Puro) was used for inhibition of HP1-mediated heterochromatin studies. All plasmids are freely available on addgene.
HP1-Recruitment Assay Dose Curve. Day 0, CiA:Oct4 N118/163 cells were grown in ES media and seeded at a density of 10,000 cells per well in 100 µL media (100,000 cells mL^-1) on gelatin coated 96 well plates. Day 1, culture media was aspirated and replaced with 100 µL ES media containing +/- 6 nM rapamycin. 10 µM, 5 µM, 2.5 µM, 1 µM, 500 nM, and 250 nM concentrations of compound or DMSO were added using a TTP Labtech Mosquito HTS liquid handler. Days 2, fresh ES media +/- rapamycin and compound were added as in Day 1. Day 3, cells were washed with PBS and trypsinized using 0.25% trypsin-EDTA. Trypsin was quenched with serum. Cells were resuspended by pipetting in preparation for flow cytometry analysis.
Flow Cytometry and Analysis.

[2] = target: T1, KDM6A (UTX) (Homo sapiens, UniProt O15550); assay: KDM cell-free assay (AlphaScreen, BPS Bioscience); type: biochemical; details: for IC50: Fig. 9A, read-out: IC50 (KDM6A inhibition dose response curve)
T1 construct: purchased BPS Bioscience
T1 sequence (O15550 whole entry): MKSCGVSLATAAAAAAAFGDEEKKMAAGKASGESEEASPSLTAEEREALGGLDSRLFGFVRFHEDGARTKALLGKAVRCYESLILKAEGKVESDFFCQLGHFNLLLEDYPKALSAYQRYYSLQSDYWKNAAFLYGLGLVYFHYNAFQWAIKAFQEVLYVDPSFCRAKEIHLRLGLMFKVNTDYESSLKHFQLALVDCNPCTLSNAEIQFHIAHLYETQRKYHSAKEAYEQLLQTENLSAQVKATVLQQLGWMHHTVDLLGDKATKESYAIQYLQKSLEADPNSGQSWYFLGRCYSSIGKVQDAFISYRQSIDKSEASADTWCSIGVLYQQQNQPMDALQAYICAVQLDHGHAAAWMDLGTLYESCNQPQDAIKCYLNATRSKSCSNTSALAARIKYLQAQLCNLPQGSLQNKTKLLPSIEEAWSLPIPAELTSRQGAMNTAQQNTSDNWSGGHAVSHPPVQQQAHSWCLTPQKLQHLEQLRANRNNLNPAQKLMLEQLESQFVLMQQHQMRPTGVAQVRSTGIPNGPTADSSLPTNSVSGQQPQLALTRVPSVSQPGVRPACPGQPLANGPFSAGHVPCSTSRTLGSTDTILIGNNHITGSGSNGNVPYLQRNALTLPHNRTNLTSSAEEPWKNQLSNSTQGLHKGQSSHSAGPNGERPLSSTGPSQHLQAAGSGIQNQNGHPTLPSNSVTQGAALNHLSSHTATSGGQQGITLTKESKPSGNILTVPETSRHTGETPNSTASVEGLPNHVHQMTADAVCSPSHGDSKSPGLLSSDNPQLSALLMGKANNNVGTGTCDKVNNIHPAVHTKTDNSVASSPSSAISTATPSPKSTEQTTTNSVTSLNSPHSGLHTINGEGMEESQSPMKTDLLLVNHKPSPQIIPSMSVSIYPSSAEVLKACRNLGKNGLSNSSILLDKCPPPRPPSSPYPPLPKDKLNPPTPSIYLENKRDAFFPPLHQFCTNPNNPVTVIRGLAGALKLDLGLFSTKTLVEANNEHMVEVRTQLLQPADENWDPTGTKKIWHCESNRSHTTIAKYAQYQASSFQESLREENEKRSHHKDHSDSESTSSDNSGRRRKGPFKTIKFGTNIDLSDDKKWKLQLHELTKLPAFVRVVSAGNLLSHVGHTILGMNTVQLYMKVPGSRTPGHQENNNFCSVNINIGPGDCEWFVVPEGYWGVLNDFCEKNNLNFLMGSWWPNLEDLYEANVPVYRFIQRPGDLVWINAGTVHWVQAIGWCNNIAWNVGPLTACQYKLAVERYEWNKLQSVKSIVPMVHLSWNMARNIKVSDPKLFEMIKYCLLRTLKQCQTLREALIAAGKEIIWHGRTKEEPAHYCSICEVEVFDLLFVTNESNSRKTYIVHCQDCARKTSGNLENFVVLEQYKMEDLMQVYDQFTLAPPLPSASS

[3] = test system: MCF-7; assay: Cell viability assay (MTS), antiproliferative activity; type: cell-based; details: Homo sapiens, MCF7, 72 h
Experimental: (§1) To preliminarily profile the bioactivity of these compounds, we adopted a streamlined approach which involved screening against KDM6A at two concentrations and evaluating antiproliferative activity against three representative cell lines – MCF-7 (ER(+) BCa), MDA-MB-231 (TNBC BCa) and Vero (a non-transformed cell line as control).
(§2) The In vitro proliferation assay was performed as reported previously[15],[16]. Detailed description of the protocol used is included in the Supplementary Information.
(§3) Cell Viability Assay. All cell lines were purchased form ATCC (Manassas, VA), and they were routinely cultured in different media recommended by the supplier. MCF-7 cells were cultured in non-phenol red DMEM (Corning, Manassas, VA) fortified with 10% charcoal treated fetal bovine serum (FBS; Atlanta Biologicals, GA) and 0.2 mM glutamine (Corning, Manassas, VA), whereas MDA-MB-231, DU-145, and Vero were cultured in DMEM with 10% FBS. […] After 24 h incubation in 37 °C under 5% CO2, cells were treated with serially diluted ligands with final DMSO concentration of 1% and incubated for additional 72 h. MTS (CellTiter 96 Aqueous One Solution Cell Proliferation Assays, Promega, Madison, WI) was added to each well 2.5 h prior to recording the absorbance at 490 nm.

[4] = test system: MDA-MB-231; assay: as above; type: cell-based; details: Homo sapiens, 72 h
Experimental: as §1, §2, §3

[5] = test system: VERO; assay: as above; type: cell-based; details: Chlorocebus sabaeus, 72 h
Experimental: as §1, §2, §3

[6] = Table 5, values calculated by linear regression

Row | Structure (SMILES) | inhibition at 1 µM ([2]; Table 2) | inhibition at 10 µM ([2]; Table 2) | IC50 ([4]; Table 5) | IC50 ([3]; Table 5) | IC50 ([5]; Table 5) | further results
1 | Cc1c(O)c(=O)ccn1CCn1cc(-c2ccccc2)nn1 [1a] | 12% | 96% | – | – | – | inhibition of heterochromatin formation [1]: did not inhibit heterochromatin formation; IC50 ([3]; Table 4): > 50 µM; IC50 ([4]; Table 4): > 50 µM; IC50 ([5]; Table 4): > 100 µM
2 | Cc1c(O)c(=O)ccn1CCCCCn1cc(-c2ccccc2)nn1 [1d] | 12% | 100% | – | – | – | IC50 [2]: 3.3 µM; IC50 ([3]; Table 4): > 50 µM; IC50 ([4]; Table 4): 11.4 µM; IC50 ([5]; Table 4): > 50 µM
3 | Cc1c(O)c(=O)ccn1CCCCCCn1cc(-c2ccccc2)nn1 [1e] | 12% | 98% | – | – | – | IC50 ([3]; Table 4): > 50 µM; IC50 ([4]; Table 4): 12.5 µM; IC50 ([5]; Table 4): > 35 µM
4 | Cc1ccccc1-c1cn(CCCCn2ccc(=O)c(O)c2C)nn1 [2a] | 6% | 100% | 16.4 µM | – | 11.6 µM | IC50 [3, 6]: 42.5 µM
5 | Cc1ccccc1-c1cn(CCCCCn2ccc(=O)c(O)c2C)nn1 [2b] | – | – | 12.7 µM | > 50 µM | 5.8 µM | –
6 | Cc1cccc(-c2cn(CCCCn3ccc(=O)c(O)c3C)nn2)c1 [2c] | 4% | 100% | 10.9 µM | – | 5.2 µM | IC50 [3, 6]: 62.7 µM
7 | Cc1cccc(-c2cn(CCCCCn3ccc(=O)c(O)c3C)nn2)c1 [2d] | – | – | 11.8 µM | > 50 µM | 3.6 µM | –
8 | Cc1ccc(-c2cn(CCCCn3ccc(=O)c(O)c3C)nn2)cc1 [2e] | 13% | 100% | 7.4 µM | > 50 µM | 4.1 µM | –
9 | COc1ccccc1-c1cn(CCCCn2ccc(=O)c(O)c2C)nn1 [2g] | – | – | 9.6 µM | – | > 50 µM | IC50 [3, 6]: 66.1 µM
10 | COc1ccccc1-c1cn(CCCCCn2ccc(=O)c(O)c2C)nn1 [2h] | 3% | 99% | 19.1 µM | > 50 µM | > 50 µM | –
11 | COc1cccc(-c2cn(CCCCn3ccc(=O)c(O)c3C)nn2)c1 [2i] | 7% | 100% | 7.5 µM | – | > 50 µM | IC50 [3, 6]: 54.8 µM
12 | COc1ccc(-c2cn(CCCCn3ccc(=O)c(O)c3C)nn2)cc1 [2k] | – | – | 8.1 µM | > 50 µM | > 50 µM | –
13 | Cc1c(O)c(=O)ccn1CCCCn1ccc(=O)c(O)c1C [3a] | – | – | – | – | – | inhibition at 1 µM ([2]; Table 3): 4%; inhibition at 10 µM ([2]; Table 3): 100%; IC50 ([3]; Table 6): > 50 µM; IC50 ([4]; Table 6): > 50 µM; IC50 ([5]; Table 6): > 50 µM
14 | Cc1c(O)c(=O)ccn1CCCCCn1ccc(=O)c(O)c1C [3b] | – | – | – | – | – | inhibition at 1 µM ([2]; Table 3): 1%; inhibition at 10 µM ([2]; Table 3): 99%; IC50 ([3]; Table 6): > 50 µM; IC50 ([4]; Table 6): > 50 µM; IC50 ([5]; Table 6): > 50 µM
15 | Cc1c(O)c(=O)ccn1CCCCCCn1ccc(=O)c(O)c1C [3c] | – | – | – | – | – | inhibition at 1 µM ([2]; Table 3): 2%; inhibition at 10 µM ([2]; Table 3): 100%; IC50 ([3]; Table 6): > 50 µM; IC50 ([4]; Table 6): > 50 µM; IC50 ([5]; Table 6): > 50 µM
16 | Cc1c(O)c(=O)ccn1CCCCCCCn1ccc(=O)c(O)c1C [3d] | – | – | – | – | – | inhibition at 1 µM ([2]; Table 3): 3%; inhibition at 10 µM ([2]; Table 3): 100%; IC50 ([3]; Table 6): > 50 µM; IC50 ([4]; Table 6): > 50 µM; IC50 ([5]; Table 6): > 50 µM
17 | Cc1c(O)c(=O)ccn1[C@H]1CC[C@H](n2ccc(=O)c(O)c2C)CC1 [3e] | – | – | – | – | – | inhibition at 1 µM ([2]; Table 3): 5%; inhibition at 10 µM ([2]; Table 3): 100%; IC50 ([3]; Table 6): > 50 µM; IC50 ([4]; Table 6): 36.9 µM; IC50 ([5]; Table 6): > 50 µM
18 | Cc1c(O)c(=O)ccn1Cc1ccc(Cn2ccc(=O)c(O)c2C)cc1 [3f] | – | – | – | – | – | inhibition at 1 µM ([2]; Table 3): 5%; inhibition at 10 µM ([2]; Table 3): 100%; IC50 ([3]; Table 6, values calculated by linear regression): 378 µM; IC50 ([4]; Table 6): 25 µM; IC50 ([5]; Table 6): > 50 µM

Now from value to compound, other results behind:

Row | inhibition at 1 µM ([2]; Table 2) | inhibition at 10 µM ([2]; Table 2) | IC50 ([4]; Table 5) | IC50 ([3]; Table 5) | Structure (SMILES) | IC50 ([5]; Table 5) | further results
19 | 4% | 100% | 9.6 µM | > 50 µM | COc1ccc(-c2cn(CCCCCn3ccc(=O)c(O)c3C)nn2)cc1 [2l] | > 50 µM | –
20 | 16% | 100% | 18.3 µM | > 50 µM | Cc1c(O)c(=O)ccn1CCCCCn1cc(-c2ccccc2F)nn1 [2m] | 12.7 µM | –
21 | 5% | 100% | 6.8 µM | > 50 µM | Cc1c(O)c(=O)ccn1CCCCCn1cc(-c2cccc(F)c2)nn1 [2n] | 22.9 µM | –
22 | 10% | 100% | 3.6 µM | > 50 µM | Cc1c(O)c(=O)ccn1CCCCCn1cc(-c2ccc(F)cc2)nn1 [2o] | 38.8 µM | –
23 | 15% | 99% | 18.8 µM | > 50 µM | Cc1c(O)c(=O)ccn1CCCCCn1cc(-c2ccccc2C(F)(F)F)nn1 [2p] | 13.3 µM | –
24 | – | – | 9.5 µM | > 50 µM | Cc1c(O)c(=O)ccn1CCCCn1cc(-c2ccc(N(C)C)cc2)nn1 [2q] | > 50 µM | –
25 | – | – | 12.5 µM | > 50 µM | Cc1c(O)c(=O)ccn1CCCCCn1cc(-c2ccc(N(C)C)cc2)nn1 [2r] | > 50 µM | –
26 | 15% | 99% | > 50 µM | > 50 µM | Cc1c(O)c(=O)ccn1CCCCCn1cc(-c2ccccn2)nn1 [2s] | > 50 µM | –
27 | 15% | 99% | 1.7 µM | > 50 µM | Cc1c(O)c(=O)ccn1CCCCCCn1cc(-c2ccc(-c3ccncc3)cc2)nn1 [2u] | 66.9 µM | IC50 [2]: 5.1 µM
